Measured values reported in patent US20060035901A1, “Methotrexate derivatives useful for treating cancer and arthritis” (Serenex, Inc., priority 2004, published 2006).

Tests used:
Assay type in all cases: binding
Her2 = Her2 (Homo sapiens, UniProt P04626); assay: Elution of Her2 from ATP-Sepharose column by compound (Proteome Mining), IC50 estimate; conditions: estimated from percent of protein eluted from ATP-Sepharose column, gel densitometry; read-out: Approximate IC50 for Her2
Method: A proteome containing a known quantity of Her2, EGFR, and B-Raf was run over an ATP-Sepharose™ column in order to bind all purine-binding proteins. […] The ATP-Sepharose™ was washed several times, and then eluted with the compound of Formula III. The experiment was run in duplicate at concentrations of 20 μM, 100 μM, and 500 μM of the compound of Formula III. The eluted fractions were run on a 1-dimensional SDS polyacrylamide gel. Gels were stained with a fluorescent stain such as sypro ruby (a highly sensitive fluorescent protein stain that can readily detect less than 1 fmol of total protein, i.e., less than 0.04 ng for a 40 kDa protein). The gels were imaged using a standard flat bed gel imager and the amount of protein estimated by densiometry. The percent of protein eluted from the column at each concentration was determined and IC50 values were calculated from these estimates. Where necessary, the eluted proteins were cut out of the gel, and identified using mass spectral techniques.

B-Raf = B-Raf (Homo sapiens, UniProt P15056); assay: Elution of B-Raf from ATP-Sepharose column by compound (Proteome Mining), IC50 estimate; conditions: estimated from percent of protein eluted from ATP-Sepharose column, gel densitometry; read-out: Approximate IC50 for B-Raf
B-Raf, sequence (P15056 whole entry, species assumed): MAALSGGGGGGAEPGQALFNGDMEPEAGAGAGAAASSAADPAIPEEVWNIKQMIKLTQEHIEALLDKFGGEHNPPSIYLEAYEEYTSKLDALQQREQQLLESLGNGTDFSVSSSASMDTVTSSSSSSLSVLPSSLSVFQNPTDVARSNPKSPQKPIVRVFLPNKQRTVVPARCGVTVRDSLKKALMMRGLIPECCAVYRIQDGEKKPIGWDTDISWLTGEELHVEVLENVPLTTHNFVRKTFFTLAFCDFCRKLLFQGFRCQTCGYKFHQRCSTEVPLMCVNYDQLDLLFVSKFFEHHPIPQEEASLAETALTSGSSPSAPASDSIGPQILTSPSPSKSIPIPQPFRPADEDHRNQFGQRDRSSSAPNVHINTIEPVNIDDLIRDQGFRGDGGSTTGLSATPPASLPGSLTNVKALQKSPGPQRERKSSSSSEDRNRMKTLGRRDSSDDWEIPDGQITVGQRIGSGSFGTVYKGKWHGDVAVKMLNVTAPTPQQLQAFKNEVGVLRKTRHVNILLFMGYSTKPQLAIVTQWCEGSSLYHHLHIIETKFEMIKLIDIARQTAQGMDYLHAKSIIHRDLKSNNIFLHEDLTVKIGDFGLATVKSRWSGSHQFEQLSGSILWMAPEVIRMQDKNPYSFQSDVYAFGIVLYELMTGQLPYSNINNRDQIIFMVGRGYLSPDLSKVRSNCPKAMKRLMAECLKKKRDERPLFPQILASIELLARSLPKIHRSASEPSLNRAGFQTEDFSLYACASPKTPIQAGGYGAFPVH
Method: A proteome containing a known quantity of Her2, EGFR, and B-Raf was run over an ATP-Sepharose™ column in order to bind all purine-binding proteins. See, WO 00/63694 and U.S. Provisional Application No. 60/453,697 filed Jan. 22, 2003, each of which is incorporated by reference in its entirety. The ATP-Sepharose™ was washed several times, and then eluted with the compound of Formula III. The experiment was run in duplicate at concentrations of 20 μM, 100 μM, and 500 μM of the compound of Formula III. The eluted fractions were run on a 1-dimensional SDS polyacrylamide gel. Gels were stained with a fluorescent stain such as sypro ruby (a highly sensitive fluorescent protein stain that can readily detect less than 1 fmol of total protein, i.e., less than 0.04 ng for a 40 kDa protein). The gels were imaged using a standard flat bed gel imager and the amount of protein estimated by densiometry. The percent of protein eluted from the column at each concentration was determined and IC50 values were calculated from these estimates. Where necessary, the eluted proteins were cut out of the gel, and identified using mass spectral techniques.
These steps were repeated with each of the compounds of Formulas IV-X, MTX, and the c series derivative.

[1] = target: T1, propionyl-CoA carboxylase subunit beta (PCCB) (Sus scrofa, UniProt P79384); assay: Elution of PCCB from ATP-Sepharose column loaded with porcine liver proteome, IC50 estimate; conditions: estimated from percent of protein eluted from ATP-Sepharose column, read-out: Approximate IC50 for PCCB
T1 construct: a porcine liver proteome was run over an ATP-Sepharose™ column; from tissue; host or cells: porcine liver
T1 sequence (P79384 29-539): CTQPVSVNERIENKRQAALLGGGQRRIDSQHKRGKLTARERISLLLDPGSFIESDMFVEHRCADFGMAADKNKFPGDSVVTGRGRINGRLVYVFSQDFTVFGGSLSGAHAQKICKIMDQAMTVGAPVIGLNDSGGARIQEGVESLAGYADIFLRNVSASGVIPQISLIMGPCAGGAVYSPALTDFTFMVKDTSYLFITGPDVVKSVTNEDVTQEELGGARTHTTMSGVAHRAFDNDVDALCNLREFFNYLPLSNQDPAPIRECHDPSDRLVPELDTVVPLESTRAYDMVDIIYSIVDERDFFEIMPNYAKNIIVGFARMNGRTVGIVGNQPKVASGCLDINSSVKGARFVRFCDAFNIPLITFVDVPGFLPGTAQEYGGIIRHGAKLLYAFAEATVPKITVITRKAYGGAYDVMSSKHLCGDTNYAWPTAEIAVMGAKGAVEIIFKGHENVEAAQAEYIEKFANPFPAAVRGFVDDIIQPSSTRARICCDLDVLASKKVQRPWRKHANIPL
T1 sequence (P0DTA4 53-730 partner): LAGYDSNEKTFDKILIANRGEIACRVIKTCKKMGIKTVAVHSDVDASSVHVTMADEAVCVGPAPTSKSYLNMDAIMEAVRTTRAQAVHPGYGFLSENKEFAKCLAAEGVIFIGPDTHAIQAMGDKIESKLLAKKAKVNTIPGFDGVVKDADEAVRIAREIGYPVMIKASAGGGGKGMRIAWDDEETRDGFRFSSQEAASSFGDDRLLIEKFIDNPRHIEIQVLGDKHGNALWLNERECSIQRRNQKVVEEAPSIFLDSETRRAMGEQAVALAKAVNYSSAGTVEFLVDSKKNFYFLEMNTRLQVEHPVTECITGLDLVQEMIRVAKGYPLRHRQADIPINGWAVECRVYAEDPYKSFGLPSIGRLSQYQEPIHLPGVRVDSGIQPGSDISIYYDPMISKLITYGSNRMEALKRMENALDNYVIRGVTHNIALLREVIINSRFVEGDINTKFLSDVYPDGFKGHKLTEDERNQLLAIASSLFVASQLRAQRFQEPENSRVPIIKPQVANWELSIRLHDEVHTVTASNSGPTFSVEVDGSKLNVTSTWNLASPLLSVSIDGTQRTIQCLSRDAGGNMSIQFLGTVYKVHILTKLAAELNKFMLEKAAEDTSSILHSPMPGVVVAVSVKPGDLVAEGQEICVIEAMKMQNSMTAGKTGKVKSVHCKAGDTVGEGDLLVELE
Method: Similar experiments were carried out to compare the IC50 values for PYC, PCCA, and PCCB. In these trials, a porcine liver proteome was run over an ATP-Sepharose™ column to bind all purine-binding proteins. The ATP-Sepharose™ column was washed several times, and then eluted with the compound of Formula III at concentrations of 1 μM, 5 μM, 10 μM, 50 μM, 100 μM, and 500 μM to identify proteins that bound to this compound.
Gels were stained with a fluorescent stain such as sypro ruby (a highly sensitive fluorescent protein stain that can readily detect less than 1 fmol of total protein, i.e., less than 0.04 ng for a 40 kDa protein). The gels were imaged using a standard flat bed gel imager and the amount of protein estimated by densiometry. The percent of protein eluted from the column at each concentration was determined and IC50 values were calculated from these estimates. Where necessary, the eluted proteins were cut out of the gel, and identified using mass spectral techniques.
The values obtained were then compared to those for DHFR.

Her2, sequence (P04626 23-1255, species assumed): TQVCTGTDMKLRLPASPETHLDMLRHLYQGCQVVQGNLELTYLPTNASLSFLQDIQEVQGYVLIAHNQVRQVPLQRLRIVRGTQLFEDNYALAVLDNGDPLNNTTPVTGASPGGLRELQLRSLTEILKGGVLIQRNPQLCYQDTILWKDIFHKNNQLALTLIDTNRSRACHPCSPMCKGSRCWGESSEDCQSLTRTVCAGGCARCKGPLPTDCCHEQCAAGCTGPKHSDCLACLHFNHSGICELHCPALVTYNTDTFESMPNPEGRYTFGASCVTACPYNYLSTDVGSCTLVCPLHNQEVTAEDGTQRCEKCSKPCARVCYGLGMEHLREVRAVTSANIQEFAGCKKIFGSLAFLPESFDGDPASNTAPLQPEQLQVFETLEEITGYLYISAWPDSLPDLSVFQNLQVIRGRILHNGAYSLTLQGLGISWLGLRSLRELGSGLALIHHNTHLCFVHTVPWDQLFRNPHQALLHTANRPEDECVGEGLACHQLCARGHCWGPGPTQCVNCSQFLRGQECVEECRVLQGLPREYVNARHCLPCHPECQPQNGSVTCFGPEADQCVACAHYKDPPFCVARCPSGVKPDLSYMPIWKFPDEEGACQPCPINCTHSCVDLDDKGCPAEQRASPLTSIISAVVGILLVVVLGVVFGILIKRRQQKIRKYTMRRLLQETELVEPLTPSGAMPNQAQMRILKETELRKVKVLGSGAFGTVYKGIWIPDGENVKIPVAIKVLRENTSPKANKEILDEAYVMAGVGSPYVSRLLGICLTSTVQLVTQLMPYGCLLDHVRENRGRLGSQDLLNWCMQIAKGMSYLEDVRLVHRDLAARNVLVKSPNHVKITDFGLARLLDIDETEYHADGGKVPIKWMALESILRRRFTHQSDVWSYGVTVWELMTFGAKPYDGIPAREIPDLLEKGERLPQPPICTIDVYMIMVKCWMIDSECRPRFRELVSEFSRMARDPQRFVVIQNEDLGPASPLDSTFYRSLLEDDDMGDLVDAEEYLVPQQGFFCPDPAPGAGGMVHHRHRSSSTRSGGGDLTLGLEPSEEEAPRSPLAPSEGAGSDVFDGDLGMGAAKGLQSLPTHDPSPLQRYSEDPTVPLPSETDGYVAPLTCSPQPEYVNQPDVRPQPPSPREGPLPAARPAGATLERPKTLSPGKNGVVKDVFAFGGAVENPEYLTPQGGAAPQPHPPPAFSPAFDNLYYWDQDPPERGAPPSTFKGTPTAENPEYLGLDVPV

| IC50 (Her2) [µM] | IC50 (B-Raf) [µM] | IC50 [1] [µM] | Compound |
| --- | --- | --- | --- |
| 0.9 | 5 | 3.5 | C#CCN(Cc1cnc2nc(N)nc(N)c2n1)c1ccc(C(=O)NC(CCC(=O)O)C(=O)O)cc1C (stereo not shown) [Formula III, 2-{4-[(2,4-diamino-pteridin-6-ylmethyl)-prop-2-ynyl-amino]-3-methyl-benzoylamino}-pentanedioic acid] |
| 7.5 |  | 14 | C#CCN(Cc1cnc2nc(N)nc(N)c2n1)c1ccc(C(=O)NC(CCC(=O)O)C(=O)O)cc1OC(F)(F)F (stereo not shown) [Formula IX] |
| 5 |  | 3 | Cc1cc(C(=O)NC(CCC(=O)O)C(=O)O)ccc1N(Cc1ccoc1)Cc1cnc2nc(N)nc(N)c2n1 (stereo not shown) [Formula VII] |
| 5 | 5 | 3.5 | C#CCN(Cc1cnc2nc(N)nc(N)c2n1)c1ccc(C(=O)NC(CCC(=O)O)C(=O)O)cc1OC (stereo not shown) [Formula VIII] |
